Key:
Experiment in all cases: biochemical
[1] = molecular target: T1, 371 kinases (kinase named in each endpoint) (Homo sapiens, UniProt Q16512); settings: PKN1/PRK1
T1 construct: purchased Reaction Biology

[2] = molecular target: T2, 371 kinases (kinase named in each endpoint) (Homo sapiens, UniProt P53350); settings: PLK1
T2 construct: purchased Reaction Biology

[3] = tested on: 371 kinases (kinase named in each endpoint); settings: 10 µM
[4] = molecular target: T3, 371 kinases (kinase named in each endpoint) (Homo sapiens, UniProt P51617); settings: IRAK1
T3 construct: purchased Reaction Biology

[5] = molecular target: T4, 371 kinases (kinase named in each endpoint) (Homo sapiens, UniProt Q02750); settings: MEK1
T4 construct: purchased Reaction Biology

[6] = molecular target: T5, 371 kinases (kinase named in each endpoint) (Homo sapiens, UniProt Q9NY57); settings: STK32B/YANK2
T5 construct: purchased Reaction Biology
T5 sequence (Q9NY57 whole entry): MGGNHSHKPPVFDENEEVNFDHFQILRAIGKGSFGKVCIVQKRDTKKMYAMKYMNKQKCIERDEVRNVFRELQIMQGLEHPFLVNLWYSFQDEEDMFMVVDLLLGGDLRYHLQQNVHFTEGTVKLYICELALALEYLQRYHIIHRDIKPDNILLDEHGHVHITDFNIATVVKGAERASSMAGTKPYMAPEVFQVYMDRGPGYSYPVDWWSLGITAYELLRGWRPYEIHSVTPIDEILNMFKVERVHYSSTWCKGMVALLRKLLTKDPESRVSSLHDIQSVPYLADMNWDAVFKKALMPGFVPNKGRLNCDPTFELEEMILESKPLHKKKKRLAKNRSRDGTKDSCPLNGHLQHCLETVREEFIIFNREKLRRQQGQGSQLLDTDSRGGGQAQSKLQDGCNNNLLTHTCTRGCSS

[7] = molecular target: T6, 371 kinases (kinase named in each endpoint) (Homo sapiens, UniProt Q96GX5); settings: MASTL
T6 construct: purchased Reaction Biology

[8] = molecular target: T7, 371 kinases (kinase named in each endpoint) (Homo sapiens, UniProt O00506); settings: STK25/YSK1
T7 construct: purchased Reaction Biology

[9] = molecular target: T8, 371 kinases (kinase named in each endpoint) (Homo sapiens, UniProt Q8TD08); settings: ERK7/MAPK15
T8 construct: purchased Reaction Biology

[10] = molecular target: T9, 371 kinases (kinase named in each endpoint) (Homo sapiens, UniProt Q9UPE1); settings: MSSK1/STK23
T9 construct: purchased Reaction Biology

[11] = molecular target: T10, 371 kinases (kinase named in each endpoint) (Homo sapiens, UniProt P36507); settings: MEK2
T10 construct: purchased Reaction Biology

[12] = molecular target: T11, 371 kinases (kinase named in each endpoint) (Homo sapiens, UniProt P35916); settings: FLT4/VEGFR3
T11 construct: purchased Reaction Biology

[13] = molecular target: T12, 371 kinases (kinase named in each endpoint) (Homo sapiens, UniProt P49759); settings: CLK1
T12 construct: purchased Reaction Biology

[14] = molecular target: T13, 371 kinases (kinase named in each endpoint) (Homo sapiens, UniProt P43405); settings: SYK
T13 construct: purchased Reaction Biology

[15] = molecular target: T14, 371 kinases (kinase named in each endpoint) (Homo sapiens, UniProt Q9UHD2); settings: TBK1
T14 construct: purchased Reaction Biology

[16] = molecular target: T15, 371 kinases (kinase named in each endpoint) (Homo sapiens, UniProt Q9Y6E0); settings: MST3/STK24
T15 construct: purchased Reaction Biology

[17] = molecular target: T16, 371 kinases (kinase named in each endpoint) (Homo sapiens, UniProt Q9UQM7); settings: CAMK2A
T16 construct: purchased Reaction Biology

[18] = molecular target: T17, 371 kinases (kinase named in each endpoint) (Homo sapiens, UniProt Q05513); settings: PKCZETA
T17 construct: purchased Reaction Biology

[19] = molecular target: T18, 371 kinases (kinase named in each endpoint) (Homo sapiens, UniProt O75460); settings: ERN1/IRE1
T18 construct: purchased Reaction Biology

[20] = molecular target: T19, 371 kinases (kinase named in each endpoint) (Homo sapiens, UniProt P35968); settings: KDR/VEGFR2
T19 construct: purchased Reaction Biology
T19 sequence (P35968 20-1356): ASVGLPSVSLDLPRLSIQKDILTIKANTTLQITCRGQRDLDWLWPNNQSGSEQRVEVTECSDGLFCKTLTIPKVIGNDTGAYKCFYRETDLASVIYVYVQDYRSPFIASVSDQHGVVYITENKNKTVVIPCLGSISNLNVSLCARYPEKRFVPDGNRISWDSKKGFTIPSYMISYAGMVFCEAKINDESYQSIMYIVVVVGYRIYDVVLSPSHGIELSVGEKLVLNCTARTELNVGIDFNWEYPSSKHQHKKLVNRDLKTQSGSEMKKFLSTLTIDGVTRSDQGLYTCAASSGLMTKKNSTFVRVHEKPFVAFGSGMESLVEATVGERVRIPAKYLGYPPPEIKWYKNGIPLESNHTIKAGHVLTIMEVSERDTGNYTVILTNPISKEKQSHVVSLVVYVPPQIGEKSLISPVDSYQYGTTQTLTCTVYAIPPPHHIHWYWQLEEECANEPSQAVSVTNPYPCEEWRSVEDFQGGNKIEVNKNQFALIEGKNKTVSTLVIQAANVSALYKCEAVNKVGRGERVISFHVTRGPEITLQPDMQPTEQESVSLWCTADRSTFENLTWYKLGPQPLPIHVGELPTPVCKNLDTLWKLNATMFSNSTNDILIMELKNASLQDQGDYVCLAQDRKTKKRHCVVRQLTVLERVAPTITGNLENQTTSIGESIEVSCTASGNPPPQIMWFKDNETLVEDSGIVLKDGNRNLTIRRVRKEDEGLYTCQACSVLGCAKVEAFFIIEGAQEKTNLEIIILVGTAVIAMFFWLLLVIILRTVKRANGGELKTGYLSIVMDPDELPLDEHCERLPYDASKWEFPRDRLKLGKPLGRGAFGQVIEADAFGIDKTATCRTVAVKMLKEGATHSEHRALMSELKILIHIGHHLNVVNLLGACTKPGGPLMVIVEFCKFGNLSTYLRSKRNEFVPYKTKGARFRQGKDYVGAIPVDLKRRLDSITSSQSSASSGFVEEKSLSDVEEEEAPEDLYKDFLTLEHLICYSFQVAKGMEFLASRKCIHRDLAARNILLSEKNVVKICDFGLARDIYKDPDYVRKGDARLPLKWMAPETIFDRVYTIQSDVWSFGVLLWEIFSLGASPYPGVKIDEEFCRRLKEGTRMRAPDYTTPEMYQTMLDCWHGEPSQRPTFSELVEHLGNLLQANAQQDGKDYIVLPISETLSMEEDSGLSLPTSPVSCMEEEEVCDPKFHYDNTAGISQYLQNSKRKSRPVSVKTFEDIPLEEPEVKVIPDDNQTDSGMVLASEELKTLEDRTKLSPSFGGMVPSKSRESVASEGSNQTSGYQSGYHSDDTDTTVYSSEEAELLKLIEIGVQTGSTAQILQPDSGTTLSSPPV

[21] = molecular target: T20, 371 kinases (kinase named in each endpoint) (Homo sapiens, UniProt Q08881); settings: ITK
T20 construct: purchased Reaction Biology
T20 sequence (Q08881 whole entry): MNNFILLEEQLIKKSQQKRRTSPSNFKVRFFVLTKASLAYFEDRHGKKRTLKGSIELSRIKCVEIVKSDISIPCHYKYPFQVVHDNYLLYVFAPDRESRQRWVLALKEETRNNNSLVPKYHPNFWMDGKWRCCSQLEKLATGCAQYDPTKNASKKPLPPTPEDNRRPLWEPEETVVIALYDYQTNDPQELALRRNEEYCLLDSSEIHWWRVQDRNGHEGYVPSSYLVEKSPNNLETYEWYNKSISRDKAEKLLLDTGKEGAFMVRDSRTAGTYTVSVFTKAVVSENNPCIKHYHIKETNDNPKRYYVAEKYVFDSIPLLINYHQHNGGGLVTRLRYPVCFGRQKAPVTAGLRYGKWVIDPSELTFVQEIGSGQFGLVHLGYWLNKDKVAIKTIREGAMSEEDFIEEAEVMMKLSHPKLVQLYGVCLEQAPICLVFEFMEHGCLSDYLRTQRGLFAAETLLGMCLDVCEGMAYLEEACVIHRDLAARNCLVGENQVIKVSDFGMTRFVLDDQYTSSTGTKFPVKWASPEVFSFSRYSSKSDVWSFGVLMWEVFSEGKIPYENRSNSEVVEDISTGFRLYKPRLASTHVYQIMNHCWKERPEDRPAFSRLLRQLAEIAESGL

[22] = molecular target: T21, 371 kinases (kinase named in each endpoint) (Homo sapiens, UniProt O95835); settings: LATS1
T21 construct: purchased Reaction Biology
T21 sequence (O95835 whole entry): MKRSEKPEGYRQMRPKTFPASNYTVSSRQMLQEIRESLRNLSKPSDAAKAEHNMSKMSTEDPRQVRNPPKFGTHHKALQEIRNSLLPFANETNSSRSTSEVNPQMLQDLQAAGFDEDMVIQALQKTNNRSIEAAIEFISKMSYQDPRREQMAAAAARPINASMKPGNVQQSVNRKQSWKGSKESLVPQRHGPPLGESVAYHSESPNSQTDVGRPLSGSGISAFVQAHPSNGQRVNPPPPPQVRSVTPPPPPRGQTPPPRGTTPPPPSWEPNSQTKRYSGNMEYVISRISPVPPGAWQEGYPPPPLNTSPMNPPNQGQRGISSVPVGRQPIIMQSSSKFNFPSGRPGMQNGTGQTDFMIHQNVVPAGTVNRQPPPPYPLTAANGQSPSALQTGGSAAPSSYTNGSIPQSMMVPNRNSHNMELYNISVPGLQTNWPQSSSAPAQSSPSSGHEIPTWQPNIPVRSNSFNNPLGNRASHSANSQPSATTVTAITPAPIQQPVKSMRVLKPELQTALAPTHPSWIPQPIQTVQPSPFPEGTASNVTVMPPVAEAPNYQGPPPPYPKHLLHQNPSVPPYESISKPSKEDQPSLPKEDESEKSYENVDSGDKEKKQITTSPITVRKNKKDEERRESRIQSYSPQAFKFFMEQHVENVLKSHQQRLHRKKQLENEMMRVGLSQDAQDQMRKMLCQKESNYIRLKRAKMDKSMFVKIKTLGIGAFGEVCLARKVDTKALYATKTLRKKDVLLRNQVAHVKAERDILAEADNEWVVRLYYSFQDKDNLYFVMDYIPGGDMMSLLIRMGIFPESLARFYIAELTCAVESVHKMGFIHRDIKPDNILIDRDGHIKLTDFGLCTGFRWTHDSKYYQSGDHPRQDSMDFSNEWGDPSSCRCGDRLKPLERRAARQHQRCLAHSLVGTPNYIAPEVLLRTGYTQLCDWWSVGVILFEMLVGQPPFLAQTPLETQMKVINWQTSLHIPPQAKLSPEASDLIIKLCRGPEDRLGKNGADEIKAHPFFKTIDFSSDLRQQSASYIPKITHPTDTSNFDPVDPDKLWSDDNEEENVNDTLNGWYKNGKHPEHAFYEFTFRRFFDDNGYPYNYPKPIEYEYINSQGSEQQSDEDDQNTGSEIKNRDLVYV

[23] = molecular target: T22, 371 kinases (kinase named in each endpoint) (Homo sapiens, UniProt Q99683); settings: ASK1/MAP3K5
T22 construct: purchased Reaction Biology

[24] = molecular target: T23, 371 kinases (kinase named in each endpoint) (Homo sapiens, UniProt P04049); settings: RAF1
T23 construct: purchased Reaction Biology

[25] = molecular target: T24, 371 kinases (kinase named in each endpoint) (Homo sapiens, UniProt P53778); settings: P38G
T24 construct: purchased Reaction Biology
T24 sequence (P53778 whole entry): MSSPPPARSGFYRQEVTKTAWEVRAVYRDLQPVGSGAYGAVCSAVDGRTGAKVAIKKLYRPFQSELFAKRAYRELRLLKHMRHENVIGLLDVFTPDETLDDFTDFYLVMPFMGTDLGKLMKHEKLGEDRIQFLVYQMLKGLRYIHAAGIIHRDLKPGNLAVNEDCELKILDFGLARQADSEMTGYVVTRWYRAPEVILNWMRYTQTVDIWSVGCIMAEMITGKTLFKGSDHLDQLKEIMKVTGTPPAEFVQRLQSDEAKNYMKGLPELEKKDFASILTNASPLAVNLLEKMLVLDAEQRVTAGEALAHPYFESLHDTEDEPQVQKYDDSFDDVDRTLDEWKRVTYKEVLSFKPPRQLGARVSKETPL

[26] = molecular target: T25, 371 kinases (kinase named in each endpoint) (Homo sapiens, UniProt P78368); settings: CK1G2
T25 construct: purchased Reaction Biology

[27] = molecular target: T26, 371 kinases (kinase named in each endpoint) (Homo sapiens, UniProt Q00537); settings: CDK17/CYCLIN Y (PCTK2)
T26 construct: purchased Reaction Biology

[28] = molecular target: T27, 371 kinases (kinase named in each endpoint) (Homo sapiens, UniProt Q00534)
T27 construct: purchased Reaction Biology
T27 sequence (Q00534 whole entry): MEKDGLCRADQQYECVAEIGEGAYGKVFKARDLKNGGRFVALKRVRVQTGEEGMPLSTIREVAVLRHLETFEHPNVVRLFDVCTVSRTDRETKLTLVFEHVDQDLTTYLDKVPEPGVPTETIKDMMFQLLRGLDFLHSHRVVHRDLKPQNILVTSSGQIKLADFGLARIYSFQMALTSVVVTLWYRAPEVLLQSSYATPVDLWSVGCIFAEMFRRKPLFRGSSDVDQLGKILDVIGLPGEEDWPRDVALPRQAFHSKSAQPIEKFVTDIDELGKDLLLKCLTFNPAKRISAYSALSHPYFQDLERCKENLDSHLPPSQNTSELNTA

[29] = molecular target: T28, 371 kinases (kinase named in each endpoint) (Homo sapiens, UniProt Q99986); settings: VRK1
T28 construct: purchased Reaction Biology

[30] = molecular target: T29, 371 kinases (kinase named in each endpoint) (Homo sapiens, UniProt P10721); settings: C-KIT
T29 construct: purchased Reaction Biology

[31] = molecular target: T30, 371 kinases (kinase named in each endpoint) (Homo sapiens, UniProt P53779); settings: JNK3
T30 construct: purchased Reaction Biology

[32] = molecular target: T31, 371 kinases (kinase named in each endpoint) (Homo sapiens, UniProt Q5S007); settings: LRRK2
T31 construct: purchased Reaction Biology

[33] = molecular target: T32, 371 kinases (kinase named in each endpoint) (Homo sapiens, UniProt P05129); settings: PKCG
T32 construct: purchased Reaction Biology

[34] = molecular target: T33, 371 kinases (kinase named in each endpoint) (Homo sapiens, UniProt Q9NR20); settings: DYRK4
T33 construct: purchased Reaction Biology
T33 sequence (Q9NR20 whole entry): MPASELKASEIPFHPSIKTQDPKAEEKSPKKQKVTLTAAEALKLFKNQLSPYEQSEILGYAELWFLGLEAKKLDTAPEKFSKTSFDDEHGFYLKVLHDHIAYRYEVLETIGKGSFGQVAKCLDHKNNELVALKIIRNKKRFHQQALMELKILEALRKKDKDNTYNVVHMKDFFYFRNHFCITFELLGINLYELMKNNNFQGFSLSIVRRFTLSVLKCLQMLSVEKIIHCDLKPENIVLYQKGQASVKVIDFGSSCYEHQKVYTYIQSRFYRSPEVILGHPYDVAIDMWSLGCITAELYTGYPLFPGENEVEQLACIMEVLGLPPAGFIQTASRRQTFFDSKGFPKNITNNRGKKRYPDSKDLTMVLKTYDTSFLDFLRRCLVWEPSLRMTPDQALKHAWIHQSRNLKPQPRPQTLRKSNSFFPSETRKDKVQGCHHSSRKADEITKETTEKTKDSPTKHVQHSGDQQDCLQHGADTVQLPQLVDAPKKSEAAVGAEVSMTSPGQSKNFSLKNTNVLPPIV

[35] = molecular target: T34, 371 kinases (kinase named in each endpoint) (Homo sapiens, UniProt Q05397); settings: FAK/PTK2
T34 construct: purchased Reaction Biology

## O=C(O)c1cc(C(F)(F)F)ccc1NCCc1c[nH]c2cc(Br)ccc12 [Compound 5, 2-((2-(6-Bromo-1H-indol-3-yl)ethyl)amino)−5-(trifluoromethyl)benzoic Acid]
[1]
  activity at 10 µM: 123 ± 1.9%
[2]
  activity at 10 µM: 92.7 ± 1.5%
[3]
  inhibition of any kinase: ≤ 80%
  share of the 371 kinases tested with >50% inhibition: 4%
[3]; LYN B
  % Activity: 93.2 ± 0.3%
[3]; PKCB2
  % Activity: 100.1 ± 1.4%
[3]; PKG1B
  % Activity: 78.0 ± 0.4%
[4]
  activity at 10 µM: 102 ± 2.5%
[5]
  activity at 10 µM: 104 ± 2.4%
[6]
  activity at 10 µM: 154.6 ± 0.7%
[7]
  activity at 10 µM: 101.7 ± 0.2%
[8]
  activity at 10 µM: 124 ± 1.4%
[9]
  activity at 10 µM: 136 ± 6.1%
[10]
  activity at 10 µM: 69.7 ± 3%
[11]
  activity at 10 µM: 110.4 ± 0.1%
[12]
  activity at 10 µM: 102 ± 3.7%
[13]
  activity at 10 µM: 109.3 ± 0.4%
[14]
  activity at 10 µM: 85.8 ± 1.6%
[15]
  activity at 10 µM: 117 ± 1.2%
[16]
  activity at 10 µM: 104 ± 1.9%
[17]
  activity at 10 µM: 70.2 ± 3.3%
[18]
  activity at 10 µM: 126.6 ± 0.3%
[19]
  activity at 10 µM: 101 ± 0.6%
[20]
  activity at 10 µM: 87.7 ± 1.6%
[21]
  activity at 10 µM: 127 ± 0.1%
[22]
  activity at 10 µM: 93 ± 3.5%
[23]
  activity at 10 µM: 110 ± 2.8%
[24]
  activity at 10 µM: 97.8 ± 0.2%
[25]
  activity at 10 µM: 107 ± 1.5%
[26]
  activity at 10 µM: 102 ± 1.6%
[27]
  activity at 10 µM: 124%
[28]; CDK6/CYCLIN D1
  activity at 10 µM: 87.9 ± 0.1%
[28]; CDK6/CYCLIN D2
  activity at 10 µM: 44.6 ± 0.5%
[28]; CDK6/CYCLIN D3
  activity at 10 µM: 60.9 ± 1.2%
[29]
  activity at 10 µM: 105 ± 1.5%
[30]
  activity at 10 µM: 84.5 ± 2.5%
[31]
  activity at 10 µM: 90.9 ± 0.3%
[32]
  activity at 10 µM: 99.5 ± 0.1%
[33]
  activity at 10 µM: 81.9 ± 1.6%
[34]
  activity at 10 µM: 96.9 ± 2.5%
[35]
  activity at 10 µM: 88.2 ± 1.5%

Reference: paper PMC10239507, “Development of allosteric and selective CDK2 inhibitors for contraception with negative cooperativity to cyclin binding” (Nature Communications, 2023)
